Here are results for 21 molecules from US20150038543A1, “ANTI-GLYCATION PROPERTIES OF OXINDOLE DERIVATIVES” (priority 2013, published 2015).

“And” between values parts separate entries of the source, which are not always exact repeats. Identical values can stand only once. Like-named read-outs stand apart in the source and are kept apart here.

This experiment deals with T1, BSA-MG glycation model (bovine serum albumin + methylglyoxal) (Bos taurus, UniProt P02769).
T1 construct: purchased Merck Marker Pvt; Ltd. (Germany)
T1 sequence (P02769 25-607): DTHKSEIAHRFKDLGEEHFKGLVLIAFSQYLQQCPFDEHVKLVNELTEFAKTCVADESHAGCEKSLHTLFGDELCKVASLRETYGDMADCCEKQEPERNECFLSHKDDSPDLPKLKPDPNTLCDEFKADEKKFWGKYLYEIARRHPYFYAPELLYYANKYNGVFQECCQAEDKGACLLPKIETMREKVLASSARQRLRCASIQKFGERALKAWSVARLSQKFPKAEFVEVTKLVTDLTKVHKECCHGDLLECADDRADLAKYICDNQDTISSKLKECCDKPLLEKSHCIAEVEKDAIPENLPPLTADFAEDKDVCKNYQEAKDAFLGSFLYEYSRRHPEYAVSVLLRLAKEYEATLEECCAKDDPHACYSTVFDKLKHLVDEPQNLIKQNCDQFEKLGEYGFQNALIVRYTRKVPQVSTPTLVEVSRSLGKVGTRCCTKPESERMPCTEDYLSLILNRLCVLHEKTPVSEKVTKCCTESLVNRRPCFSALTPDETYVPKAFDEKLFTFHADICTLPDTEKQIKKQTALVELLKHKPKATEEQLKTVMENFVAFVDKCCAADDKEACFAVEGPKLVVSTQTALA
Kind of experiment: in vitro BSA-MG glycation model (fluorescence of AGE formation). It counts as biochemical. To be noted: for activity against the protein glycation (in words): in vitro protein glycation, compared with standard rutin. Here is the method:
Bovine serum albumin (BSA) was purchased from Merck Marker Pvt. Ltd. (Germany), rutin and methylglyoxal (MG) (40% aqueous solution) were from Sigma Aldrich (Japan), sodium dihydrogen phosphate (NaH2PO4), disodium hydrogen phosphate (Na2HPO4) and sodium azide (NaN3) were purchased from Scharlau Chemie, S. A. (Spain), while dimethyl sulphoxide (DMSO) was purchased from Fischer Scientific (UK).
The total reaction volume of the assay was 200 μL, having final concentrations of 10 mg/mL BSA, 14 mM methylglyoxal, and 1 mM test compounds. 10 mg/mL solution of BSA and 14 mM methylglyoxal was prepared in 0.1 M phosphate buffer (pH 7.4), containing sodium azide (NaN3) (30 mM) as antimicrobial agent, while 1 mM solutions of test compounds were prepared in the DMSO. Assay was performed in triplicate. Each reaction mixtures were comprised of 50 μL BSA, 50 μL methylglyoxal, 20 μL test compound and 80 μL phosphate buffer (pH 7.4). The reaction mixture was incubated under aseptic conditions at 37° C. for 9 days.
After completion of nine days of incubation, each sample was examined for the development of specific fluorescence (excitation 330 nm; emission 420 nm) against blank on a microtitre plate reader (SpectraMax M2, Molecular Devices, CA, USA). The percent inhibition of AGE formation by the test sample versus control was calculated by using the following formula:
% Inhibition=(1−Fluorescence of test sample/Fluorescence of the control)×100
The IC50 (i.e. the concentration of test samples that inhibit the process of glycation to 50%) was determined by monitoring the effect of various concentrations (ranges from 1000-50 μM) of test compounds. The IC50 values were calculated by using EZ-FIT Enzyme Kinetics Program (Perrella Scientific Inc., Amherst, USA). The antiglycation potential of test compounds was compared with rutin, which was used as standard inhibitor.

Setting [1] is: BSA 10 mg/mL, methylglyoxal 14 mM, pH 7.4, 37° C., 9 days, test concentrations 1000-50 μM, triplicate, NA = not active, read-out: Antiglycation Activity IC50 ± SEM.
Setting [2] is: read-out: % inhibition against BSA-MG glycation model, 1 mM test compound, BSA 10 mg/mL, methylglyoxal 14 mM, 37° C., 9 days.
The mark [3] stands for this setting: Antiglycation Activity IC50 ± SEM, BSA 10 mg/mL, methylglyoxal 14 mM, pH 7.4, 37° C., 9 days, test concentrations 1000-50 μM, triplicate, NA = not active.
[4] abbreviates: 1 mM test compound, BSA 10 mg/mL, methylglyoxal 14 mM, 37° C., 9 days, read-out: % inhibition against BSA-MG glycation model.

For the molecule `O=C1Nc2ccccc2/C1=C\c1cccc(O)c1` [Compound 1, 3-[(E)-(3-hydroxyphenyl)methylidene]-1,3-dihydro-2H-indol-2-one], the “activity against the protein glycation (in words)” value (“activity” below) is “potent activity”. Moreover, the 50% inhibitory concentration (IC50) under setting [1] was 282 µM and 194 to 455 µM. `O=C1Nc2ccccc2/C1=C\c1cccc2ccccc12` [Compound 2, 3-[(E)-1-naphthylmethylidene]-1,3-dihydro-2H-indol-2-one]: the concentration for half-maximal inhibition (IC50) (bovine, 9 days, pH 7.4) lay in the range of 194 to 455 µM. Moreover, the inhibition at 1000 µM under setting [2] was less than 50%. Take `CCOc1cccc(/C=C2/C(=O)Nc3ccccc32)c1O` [Compound 3, 3-[(E)-(3-ethoxy-2-hydroxyphenyl)methylidene]-1,3-dihydro-2H-indol-2-one]: the “activity” value is “potent activity”. Also, under setting [3], the IC50 was 268 µM and 194 to 455 µM. As for `O=C1Nc2ccccc2/C1=C\c1c2ccccc2cc2ccccc12` [Compound 4, 3-[(E)-9-anthrylmethylidene]-1,3-dihydro-2H-indol-2-one], the IC50 under setting [3] was 456 µM and 194 to 455 µM. Take `O=C1Nc2ccccc2/C1=C\c1ccc(O)cc1` [Compound 5, 3-[(E)-(4-hydroxyphenyl)methylidene]-1,3-dihydro-2H-indol-2-one]: the inhibition at 1000 µM under setting [4] is less than 50%. Consider `CCOc1ccc(/C=C2/C(=O)Nc3ccccc32)cc1` [Compound 6, 3-[(E)-(4-ethoxyphenyl)methylidene]-1,3-dihydro-2H-indol-2-one], for which the inhibition at 1000 µM under setting [4] was less than 50%. For the molecule `COc1ccccc1/C=C1/C(=O)Nc2ccccc21` [Compound 7, 3-[(E)-(2-methoxyphenyl)methylidene]-1,3-dihydro-2H-indol-2-one], the IC50 (bovine, 9 days, pH 7.4) fell in the range of 194 to 455 µM. Also, the inhibition at 1000 µM under setting [2] was less than 50%. Regarding `O=C1Nc2ccccc2/C1=C\c1ccc(F)cc1` [Compound 8, 3-[(E)-(4-fluorophenyl)methylidene]-1,3-dihydro-2H-indol-2-one], the “activity” value is “potent activity”. For the same molecule, the IC50 under setting [3] came out at 211 ± 4.1 µM.

For `O=C1Nc2ccccc2/C1=C\c1ccccc1F` [Compound 9, 3-[(E)-(2-fluorophenyl)methylidene]-1,3-dihydro-2H-indol-2-one], the inhibition at 1000 µM under setting [2] is less than 50%. For the molecule `CSc1ccc(/C=C2/C(=O)Nc3ccccc32)cc1` [Compound 10, 3-[(E)-(4-methylsulfanylphenyl)methylidene]-1,3-dihydro-2H-indol-2-one], the inhibition at 1000 µM under setting [2] is less than 50%. For `COc1cccc(/C=C2/C(=O)Nc3ccccc32)c1O` [Compound 11, 3-[(E)-(2-hydroxy-3-methoxyphenyl)methylidene]-1,3-dihydro-2H-indol-2-one], the IC50 under setting [3] was 374 µM and 194 to 455 µM. As to `O=C1Nc2ccccc2/C1=C\c1ccc(Cl)c(Cl)c1` [Compound 12, 3-[(E)-(3,4-dichlorophenyl)methylidene]-1,3-dihydro-2H-indol-2-one], the inhibition at 1000 µM under setting [2] is less than 50%.

As to `Cc1ccc(O)c(/C=C2/C(=O)Nc3ccccc32)c1` [Compound 13, 3-[(E)-(2-hydroxy-5-methylphenyl)methylidene]-1,3-dihydro-2H-indol-2-one], the “activity” value is “potent activity”. In addition, the IC50 under setting [3] is 194 µM and 194 to 455 µM. Take `O=C1Nc2ccccc2/C1=C\c1cccc(Cl)c1` [Compound 14, 3-[(E)-(3-chlorophenyl)methylidene]-1,3-dihydro-2H-indol-2-one]: the “activity” value was “potent activity”. Under setting [3], the IC50 was 151 µM and 150 µM.

For the molecule `O=C1Nc2ccccc2/C1=C\c1ccc([N+](=O)[O-])cc1` [Compound 15, 3-[(E)-(4-nitrophenyl)methylidene]-1,3-dihydro-2H-indol-2-one], the inhibition at 1000 µM under setting [4] was less than 50%.

Take `O=C1Nc2ccccc2/C1=C\c1cc(Cl)ccc1O` [Compound 16, 3-[(E)-(5-chloro-2-hydroxyphenyl)methylidene]-1,3-dihydro-2H-indol-2-one]: the inhibition at 1000 µM under setting [2] is less than 50%. Regarding `O=C1Nc2ccccc2/C1=C\c1cccc([N+](=O)[O-])c1` [Compound 17, 3-[(E)-(3-nitrophenyl)methylidene]-1,3-dihydro-2H-indol-2-one], the inhibition at 1000 µM under setting [2] was less than 50%.

As for `O=C1Nc2ccccc2/C1=C\c1ccc(Cl)cc1Cl` [Compound 18, 3-[(E)-(2,4-dichlorophenyl)methylidene]-1,3-dihydro-2H-indol-2-one], the IC50 under setting [3] was 856.7 ± 2.4 µM. `O=C1Nc2ccccc2/C1=C\c1ccccc1O` [Compound 20, 3-[(E)-(2-hydroxyphenyl)methylidene]-1,3-dihydro-2H-indol-2-one]: the “activity” value is listed as “potent activity”. Further, the IC50 under setting [1] is 285 µM and 194 to 455 µM. On to `O=C1Nc2ccccc2/C1=C\c1ccc(Cc2ccccc2)cc1` [Compound 21, 3-[(E)-(4-benzylphenyl)methylidene]-1,3-dihydro-2H-indol-2-one], for which the inhibition at 1000 µM under setting [2] was less than 50%.

As to `C[C@@H]1O[C@@H](OC[C@H]2O[C@@H](Oc3c(-c4ccc(O)c(O)c4)oc4cc(O)cc(O)c4c3=O)[C@H](O)[C@@H](O)[C@@H]2O)[C@H](O)[C@H](O)[C@H]1O` [Rutin, reference compound], the IC50 under setting [1] was 294 µM.
